The source of these data is patent publication US8951997B2, “Substituted isoquinoline derivative” (D. Western Therapeutics Institute, Inc., priority 2009, dated 2015).

Where a name gives a salt, the structure may show the parent alone.

Assay [1] deals with rabbits (New Zealand White). The assay is described as follows: Ocular hypotensive effect in rabbits. In kind it is in vivo, rabbit. The conditions noted are these: Oryctolagus cuniculus, topical, 0.04 mL dropped to one eye, vehicle to contralateral eye, test compound solution concentration 10 (W/V), read-out: Maximum ocular hypotensive rate. The procedure: The compound of the present invention was administered to rabbits (New Zealand White, sex: male, 3 to 7 per group) and evaluated for its ocular hypotensive effect.
Each test compound was dissolved in a vehicle (1.04 g of sodium dihydrogen phosphate dihydrate and 0.5 g of sodium chloride dissolved in purified water and then adjusted to pH 7.0 with sodium hydroxide to make the total amount to 100 mL) to prepare a test compound solution with a concentration of 10 (W/V).
The intraocular pressures of the rabbits were measured using Tiolat TonoVet handheld tonometer immediately before administration of test compound. The test compound solution and the vehicle were dropped at a volume of 0.04 mL to one eye and the contralateral eye, respectively, and the intraocular pressures were measured over time in the same way as above. The rate of the intraocular pressure of the eye receiving the test compound solution to that of the eye receiving the vehicle was calculated as an ocular hypotensive rate.

Assay [2] has as its system spontaneously hypertensive rats (SHR/Izm). Kind of assay: Blood pressure lowering effect in spontaneously hypertensive rats. In kind it is in vivo, rat. The conditions noted are these: male, intraperitoneal. On the procedure:
The compound of the present invention was intraperitoneally administered to spontaneously hypertensive rats (SHR/Izm, sex: male, 4 to 6 rats per group) and evaluated for its blood pressure lowering effect. Examples 32, 34, and 35 were used as test compounds.
Each test compound was dissolved in saline and diluted to prepare a test compound solution with a predetermined concentration.
The test drug was intraperitoneally administered at a dose of 10 mg/kg (except for 30 mg/kg for Example 34) to the animals (4 to 6 rats per group), and their blood pressures and pulse rates were measured over time using Softron Indirect Blood Pressure Meter BP-98A.

For assay [3], the system named is rabbits (New Zealand White). The assay is described as follows: Ocular hypotensive effect in rabbits. The format is in vivo, rabbit. The conditions noted are these: Oryctolagus cuniculus, topical, 0.04 mL dropped to one eye, vehicle to contralateral eye, test compound concentration of 2%, read-out: Maximum ocular hypotensive rate.
Assay [4] deals with NG108-15 cells. The assay is described as follows: Neurite outgrowth promoting effect. The format is cell-based. The conditions noted are these: NG108-15 cells, 10, 3, 1, or 0.3 μmol/L, 24 hours, compared with cells cultured in the absence of the compound. The procedure:
To examine the usefulness of the compound of the present invention as a therapeutic agent for neurodegenerative diseases, NG108-15 cells frequently used as a model of neurons were cultured in the presence of the compound of the present invention, which was then evaluated for its neurite outgrowth promoting effect. Examples 15 and 49 were used as test compounds.
Each test compound was dissolved in dimethyl sulfoxide and diluted to prepare a test compound solution with a predetermined concentration.
The NG108-15 cells (obtained from ATCC) were cultured in a Dulbecco's modified eagle's medium containing 5% fetal bovine serum and 1×HAT (hypoxanthine, aminopterin, and thymidine). The cells were inoculated at 12,000 cells/well to a 24-well plate and statically cultured at 37° C. for 12 hours in an environment of 5% CO2 and 95% air. Then, each test compound was added at a final concentration of 10, 3, 1, or 0.3 μmol/L. 24 hours later, the degree of neurite outgrowth was observed under an inverted microscope.

Assay [5] relates to mouse model of spinal cord injury. Kind of assay: Motor function recovering effect on a spinal cord injury model of the mouse. In kind it is in vivo. The conditions noted are these: C57BL/6Cr mice, 3 mg/kg intraperitoneal once a day for 7 days, day 14 after operation, score 0 normal to 72 most serious, saline group 41. On the procedure: To examine the usefulness of the compound of the present invention as a therapeutic agent for spinal cord injury, the mouse model of spinal cord injury was prepared and a motor function recovering effect after spinal cord injury was investigated.
Example 14 as a test compound was dissolved in saline and diluted to prepare a test compound solution with a predetermined concentration.
C57BL/6Cr mice (female, body weight: around 19 g, 6 to 8 […] per group) were anesthetized by halothane inhalation. The spinal cord at the level of the eighth thoracic vertebrae was compressed with 20 g of weight for 5 minutes to prepare a spinal cord injury model, according to the method described in the document (Acta Neuropathol. 100, 13-22 (2000)). The test compound was intraperitoneally administered at a dose of 3 mg/kg once a day for 7 consecutive days from the surgery day. After 1, 4, 7, 10, and 14 days from the preparation of the spinal cord injury model, the severity of neurological dysfunction was scored by a partial modification of the performance score described in J. Neurosurg. 93 (Spine 1), 94-101(2000). The details of the behavioral score are as follows:
Open field locomotion (rated 0 to 42)
Toe spread (rated 0 to 5)
Contact place response (rated 0 to 5)
Withdrawal reflexes (rated 0 to 5 for each reflex to extension, pain, and pressure stimulations)
Righting reflex (rated 0 to 5) […]

The test system of assay [6] is rats (SD). The assay is described as follows: Blood pressure lowering effect in rats. The format is in vivo, rat. The conditions noted are these: male, intraperitoneal, 10 mg/kg. On the procedure: The compound of the present invention was intraperitoneally administered to rats (SD, sex: male, 6 rats per group) and evaluated for its blood pressure lowering effect. Example 18 was used as a test compound.
The test compound was dissolved in saline and diluted to prepare a test compound solution with a predetermined concentration.
The test drug was intraperitoneally administered at a dose of 10 mg/kg to the rats (6 rats per group), and their blood pressures and pulse rates were measured over time using Softron Indirect Blood Pressure Meter BP-98A.

`C[C@@H]1CCNC[C@@H](C)N1S(=O)(=O)c1ccc2cnccc2c1` [Example 35, (2R,7R)-6-(2,7-dimethyl-1,4-diazepan-1-ylsulfonyl)isoquinoline dihydrochloride]: the inhibition in vivo at 10 % in assay [1] was at least 15%. For the same compound, the pulse rate entry in assay [2] (10 mg/kg) is “increased”. Regarding `C[C@@H]1CNCCCCN1S(=O)(=O)c1ccc2c(SCCN)nccc2c1` [Example 52, (R)-1-(2-aminoethylthio)-6-(2-methyl-1,4-diazocan-1-ylsulfonyl)isoquinoline trihydrochloride], the inhibition in vivo at 2 % in assay [3] was at least 15%. As to `C[C@H]1CNCCCN1S(=O)(=O)c1ccc2cnccc2c1Br` [Example 15, (S)-5-bromo-6-(2-methyl-1,4-diazepan-1-ylsulfonyl)isoquinoline dihydrochloride], the “degree of neurite outgrowth” value in assay [4] is “remarkable neurite outgrowth”. The inhibition in vivo at 10 % in assay [1] was at least 15%. `Cc1c(S(=O)(=O)N2CCCNC[C@@H]2C)ccc2cnccc12` [Example 49, (S)-5-methyl-6-(2-methyl-1,4-diazepan-1-ylsulfonyl)isoquinoline]: the “degree of neurite outgrowth” value in assay [4] is reported as “remarkable neurite outgrowth”. Also, the inhibition in vivo at 10 % in assay [1] was at least 15%. On to `C[C@@H]1CNCCCCN1S(=O)(=O)c1ccc2cnccc2c1` [Example 14, (R)-6-(2-methyl-1,4-diazocan-1-ylsulfonyl)isoquinoline dihydrochloride], for which the inhibition in vivo at 10 % in assay [1] was at least 15%. Also, the neurological dysfunction score in assay [5] amounted to 33. Consider `C[C@@H]1CCNCCN1S(=O)(=O)c1ccc2c(SCCN)nccc2c1` [Example 51, (R)-1-(2-aminoethylthio)-6-(7-methyl-1,4-diazepan-1-ylsulfonyl)isoquinoline trihydrochloride], for which, in assay [3], the inhibition in vivo at 2 % is at least 15%.

Consider `C[C@@H]1CNCCCN1S(=O)(=O)c1ccc2cnccc2c1` [Example 18, (R)-6-(2-methyl-1,4-diazepan-1-ylsulfonyl)isoquinoline dihydrochloride], for which, in assay [1], the inhibition in vivo at 10 % is at least 15%. The pulse rate result in assay [6] is given as “increased”. The “systolic blood pressure lowered compared with the value before administration” value in assay [6] (maximum lowering) is at least 30%. Consider `CC1(C)CNCCCN1S(=O)(=O)c1ccc2cnccc2c1` [Example 22, 6-(2,2-dimethyl-1,4-diazepan-1-ylsulfonyl)isoquinoline dihydrochloride], for which the inhibition in vivo at 10 % in assay [1] is at least 15%. Turning to `C[C@@H]1CNCCOCCN1S(=O)(=O)c1ccc2cnccc2c1` [Example 43, (R)-6-(5-methyl-1,4,7-oxadiazonan-4-ylsulfonyl)isoquinoline dihydrochloride], in assay [1], the inhibition in vivo at 10 % is at least 15%. Same read-out and setting: the result for `C[C@@H]1CNCCCN1S(=O)(=O)c1ccc2cnccc2c1Br` [Example 29, (R)-5-bromo-6-(2-methyl-1,4-diazepan-1-ylsulfonyl)isoquinoline dihydrochloride] reads at least 15%. For the compound `C[C@@H]1CCNCCN1S(=O)(=O)c1ccc2cnccc2c1` [Example 34, (R)-6-(7-methyl-1,4-diazepan-1-ylsulfonyl)isoquinoline dihydrochloride], in assay [1], the inhibition in vivo at 10 % is at least 15%. Moreover, the pulse rate entry in assay [2] (30 mg/kg) is “increased”. Take `C[C@H]1CCNCCN1S(=O)(=O)c1ccc2cnccc2c1` [Example 32, (S)-6-(7-methyl-1,4-diazepan-1-ylsulfonyl)isoquinoline dihydrochloride]: the inhibition in vivo at 10 % in assay [1] was at least 15%. In assay [2] (10 mg/kg), the pulse rate result is recorded as “increased” and the “systolic blood pressure lowered compared with the value before administration” value was determined as 16%. With `C[C@@H]1CCN(S(=O)(=O)c2ccc3cnccc3c2)CCNC1` [Example 30, (R)-6-(6-methyl-1,4-diazocan-1-ylsulfonyl)isoquinoline dihydrochloride], the inhibition in vivo at 10 % in assay [1] was at least 15%. For `O=S(=O)(c1cc(F)c2cnccc2c1)N1CCCNCC1` [Example 6, 6-(1,4-diazepan-1-ylsulfonyl)-8-fluoroisoquinoline dihydrochloride], the inhibition in vivo at 10 % in assay [1] was in the range of 5 to 15%. Same read-out and setting: the result for `C[C@H]1CNCCCCCN1S(=O)(=O)c1ccc2cnccc2c1` [Example 28, (S)-6-(2-methyl-1,4-diazonan-1-ylsulfonyl)isoquinoline dihydrochloride] reads at least 15%; that for `CNCC(=O)N1CCCCN(S(=O)(=O)c2ccc3cnccc3c2)[C@H](C)C1` [Example 48, (R)-6-(4-sarcosyl-2-methyl-1,4-diazocan-1-ylsulfonyl)isoquinoline dihydrochloride], 5 to 15%; that for `C[C@H]1CCNCCCN1S(=O)(=O)c1ccc2cnccc2c1` [Example 42, (S)-6-(2-methyl-1,5-diazocan-1-ylsulfonyl)isoquinoline dihydrochloride], at least 15%. Turning to `C[C@@H]1CNC/C=C\CN1S(=O)(=O)c1ccc2cnccc2c1` [Example 8, (R,Z)-6-(2-methyl-2,3,4,5-tetrahydro-1,4-diazocin-1(8H)-ylsulfonyl)isoquinoline dihydrochloride], the inhibition in vivo at 10 % in assay [1] is at least 15%.
